Data published in PMC9396645 (Frontiers in Chemistry, 2022).

Legend:
[1] = tested on: C4-2 cells; experiment: Internalization efficiency / specific cell uptake in C4-2 cells; type: cell-based, human; details: ^68Ga-labeled compounds 30 nM, 45 min, 37°C, specificity by 2-PMPA 500 μM, mean ± SD (n = 3)
Experimental: The specific internalization ratio was determinated in 24-well plates. The plates were previously coated with 0.1% poly-L-lysine in PBS for 20 min and washed with PBS once. C4-2 cells (10^5 cells per analysis) were added to each well and equilibrated overnight. The cells were incubated for 45 min with 250 µL of a 30 nM solution of the ^68Ga-labeled compounds either in a water bath at 37°C or on ice. The PSMA-receptor-blocking agent 2-(phosphonomethyl)pentanedioic acid (2-PMPA; 500 μM; Axxora) was used to verify the specificity of the cellular uptake of the novel compounds. The cells were washed thrice (using 1 ml of ice-cold PBS), followed by an incubation with 0.5 ml of a glycine solution (50 mM in HCl at a pH of 2.8) for 5 min, washed once with 1 ml of ice-cold PBS, and finally lysed with 0.5 ml of 0.3 M NaOH. The lysate was collected, and the radioactivity was measured in a gamma-counter. Triplicate measurements were performed for all experiments.

[2] = Determination of plasma half-life in athymic nude mice; type: in vivo, mouse; details: athymic nude mice (n = 3), i.v. 4–6 MBq, biexponential fit, weighted overall half-life
Experimental: The radioligands ^68Ga-CA027 and ^68Ga-CA028 (4–6 MBq) were injected into athymic nude mice (n = 3) via the lateral tail vein. Blood (25–50 μL) was collected 2, 5, 15, 30, 45, 60, 90, and 120 min post injection via either the tail or saphenous vein, and the activity of the blood samples was determined in a γ-counter. Both procedures furnished consistent and reproducible results. The percentage of the injected dose per gram of tissue (%ID/g) was calculated, and the resulting values were plotted as a function of time. A biexponential decay curve was used as a fit function, accounting for a short blood half-life (a-phase) during the initial phase directly after injection and a longer blood half-life during the terminal phase (b-phase). The data analysis program Prism 7™ was used to determine both half-lives, t1/2-a and t1/2-b, as well as their relative contribution (in %) to the overall half-life (t1/2). Subsequently, both half-lives were weighed according to their relative contribution to the overall blood half-life t1/2. At the time of tracer injection (t = 0), it was assumed that %ID/g = 50. The injected dose at t = 0 equals 100%, divided by the total mass of blood (approximately 2 g in the case of 6‒8 weeks old mice) gives %ID/g t=0 = 50.

[3] = tested on: C4-2 tumor bearing BALB/c nu/nu mice; experiment: Biodistribution (organ distribution) in C4-2 tumor-bearing mice; type: in vivo, mouse
Text: (§1) Athymic male nude mice (BALB/c nu/nu) were purchased from Charles River at 4‒5 weeks of age (19–23 g). The mice were kept under pathogen-free conditions for 1 week prior to the study. The mice had free access to water and food and were housed with a 12-h/12-h light/dark cycle. The xenografts required for positron emission tomography (PET) imaging and biodistribution studies were obtained by inoculation of 5 × 10^7 C4-2 cells in 50% Matrigel in Opti-MEM I (1 ×) medium. For this purpose, the mice were anesthetized with 2% sevoflurane, and inoculation was performed subcutaneously on the right trunk. When the size of the tumor was approximately 1 cm^3, the studies were performed.
Based on the results of the PET imaging, ^68Ga-CA028 and ^68Ga-CA030, the most promising compounds, were chosen for biodistribution studies in C4-2 tumor-bearing mice. The labeled compound (0.05 nmol, 20 MBq) was administered to the mice via tail vein injection. Animals were sacrificed and organs were harvested at the following time points: 20 min, 1, 2, and 4 h p.i. The organs were dissected and weighed, the activity was measured with a γ-counter, and the % ID/g was calculated.

[4] = tested on: C4-2 tumor bearing BALB/c nu/nu mice; experiment: Small-animal PET imaging in C4-2 tumor bearing mice; type: in vivo, mouse; details: for mSUV Bladder / mSUV Heart / mSUV Kidneys / mSUV Liver / mSUV Muscle / mSUV Tumor: small-animal PET, C4-2 xenograft mouse
Text: as §1
For small-animal PET imaging, the different ^68Ga-labeled PSMA ligands (0.5 nmol, 20 MBq in approximately 100 µL 0.9% saline) were injected into C4-2 tumor bearing mice. The dynamic PET was recorded in a small animal PET scanner (Siemens Inveon D-PET). The standardized uptake values (SUVs) were obtained from conventional (non-dynamic) PET images. The formula for the SUV was SUV=activity in ROI (Bq/ml) × animal weight (g)/injected dose(Bq)
Manual delineation of the respective appropriate whole organ (heart, kidneys, bladder, tumor, with an approximate volume of 100–500 µL) yielded the volumes of interest (VOIs). For this purpose, whole organs or parts of the organ/tissue (liver and muscle) were used. The images were reconstructed based on the procedure: OSEM 3D/SP MAP with 16 subsets, two iterations, and an image x-y size: 256, image z size: 161. The data were not modified with a post-processing filter. Analysis of the images and time-activity curves (TACs) was conducted on the Inveon™ Acquisition Workplace (IAW) from Siemens IRW 4.1. […] […] The mean SUVs were plotted over time in order to compare the different radiotracers.

plasma half-life t1/2 [2]: 5.2 min | tumor uptake ([3]; C4-2 tumor, 20 min after injection, 0.05 nmol, 20 MBq): 12.53 ± 0.45 %ID/g | tumor uptake with blockade ([3]; C4-2 tumor, 1 h p.i., co-injection of non-labeled PSMA-617 2 mg/kg): 1.31 ± 0.34 %ID/g | kidney uptake ([3]; kidneys, 1 h p.i., 0.05 nmol, 20 MBq): 15.58 ± 2.79 %ID/g | kidney uptake with blockade ([3]; kidneys, 1 h p.i., co-injection of non-labeled PSMA-617 2 mg/kg): 2.37 ± 0.52 %ID/g | mSUV Bladder ([4]; 1 h): 6.50 | mSUV Heart ([4]; 1 h): 0.36 | mSUV Kidneys ([4]; 1 h): 0.39 | mSUV Liver ([4]; 1 h): 0.22 | mSUV Muscle ([4]; 1 h): 0.13 | mSUV Tumor ([4]; 1 h): 0.81 | mSUV Bladder ([4]; 2 h): 2.5 | mSUV Heart ([4]; 2 h): 0.13 | mSUV Kidneys ([4]; 2 h): 0.29 | mSUV Liver ([4]; 2 h): 0.09 | mSUV Muscle ([4]; 2 h): 0.05 | mSUV Tumor ([4]; 2 h): 0.78 | tumor-to-kidney ratio ([4]; mean SUV from PET, 2 h p.i.): 2.69
Compound: O=C([O-])CN1CCN(CC(=O)[O-])CCN(Cc2ccc(C(=O)NCC3CCC(C(=O)NC(Cc4ccc5ccccc5c4)C(=O)NCCCCC(NC(=O)NC(CCC(=O)O)C(=O)O)C(=O)O)CC3)cc2)CCN(CC(=O)[O-])CC1.[68Ga+3] (centres unmarked) [^68Ga-CA028]
Specific lysate (internalization) [1]: 41.2 ± 2.7 %IA/10^6 cells | tumor-to-kidney ratio ([4]; mean SUV body weight from dynamic PET, 1 h p.i.): 2.08
